Data as given in patent publication US7507816B2, “Pharmaceutical preparations comprising substituted beta-aminoalcohols” (Gruenenthal GmbH, priority 2001, dated 2009).

molecular target: T1, NA transporter (Rattus norvegicus, UniProt Q9WTR4); test: Noradrenaline reuptake inhibition (NA uptake inhibition) in rat brain synaptosomes; type: biochemical; details: test concentration of 10^−5 M; synaptosomes (P2 fraction) from the hypothalamus of male rat brains
T1 construct: synaptosomes were freshly isolated from rat brain regions; from tissue; host or cells: rat hypothalamus synaptosomes (P2 fraction)
Procedure: Investigations Relating to Noradrenaline Reuptake Inhibition (NA Uptake Inhibition)
The compounds according to the invention are NA uptake inhibitors. In order to be able to carry out these in vitro studies, synaptosomes were freshly isolated from rat brain regions. A so-called “P2” fraction was used, which was prepared according to the instructions given by Gray and Whittaker (E. G. Gray and V. P. Whittaker (1962) J. Anat. 76, 79-88). For NA uptake, these vesicular particles were isolated from the hypothalamus of male rat brains.
The following characteristics were determined for the NA transporter: NA uptake: Km=0.32±0.11 μM (In each case N=4, i.e. means±SEM from 4 independent series of tests, which were performed as parallel tests in triplicate).
A detailed description of the method may be found in the literature (M. Ch. Frink, H.-H. Hennies, W. Englberger, M. Haurand and B. Wilffert (1996) Arzneim.-Forsch./Drug Res. 46 (III), 11, 1029-1036). The NA uptake inhibition of selected compounds was determined. The values were determined at a test concentration of 10^−5 M.

T1 sequence (Q9WTR4 1-597): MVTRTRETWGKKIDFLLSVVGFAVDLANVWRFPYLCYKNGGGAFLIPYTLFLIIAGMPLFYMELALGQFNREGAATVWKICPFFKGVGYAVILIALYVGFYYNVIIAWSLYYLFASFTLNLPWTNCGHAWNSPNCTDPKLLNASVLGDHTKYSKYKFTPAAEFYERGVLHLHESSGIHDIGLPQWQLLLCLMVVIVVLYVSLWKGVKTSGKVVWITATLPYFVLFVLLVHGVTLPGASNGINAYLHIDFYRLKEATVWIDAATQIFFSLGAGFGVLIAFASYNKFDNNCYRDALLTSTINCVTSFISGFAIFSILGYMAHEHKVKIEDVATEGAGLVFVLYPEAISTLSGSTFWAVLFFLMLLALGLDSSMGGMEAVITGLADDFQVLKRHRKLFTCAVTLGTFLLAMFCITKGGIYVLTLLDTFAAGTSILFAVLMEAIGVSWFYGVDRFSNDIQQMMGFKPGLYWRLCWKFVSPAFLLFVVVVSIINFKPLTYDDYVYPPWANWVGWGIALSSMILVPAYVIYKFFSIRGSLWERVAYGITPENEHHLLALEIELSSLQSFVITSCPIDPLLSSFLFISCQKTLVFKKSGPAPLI

Row | Structure (SMILES) | inhibition at 10 µM [%] | NA Uptake (% inhibition) [%]
1 | OC1(c2cccc(Cl)c2Cl)CCCCCC1CN1CCCC1 (stereo not shown) [1-(2,3-Dichloro-phenyl)-2-pyrrolidin-1-ylmethyl-cycloheptanol] | 63 | –
2 | OC1(c2cccc(Cl)c2Cl)CCCCC1CN1CCCC1 (stereo not shown) [1-(2,3-Dichloro-phenyl)-2-pyrrolidin-1-ylmethyl-cyclohexanol] | 60 | –
3 | OC1(c2cccc(Cl)c2Cl)CCCC1CN1CCCC1 (stereo not shown) [1-(2,3-Dichloro-phenyl)-2-pyrrolidin-1-ylmethyl-cyclopentanol] | 53 | –
4 | OC1(c2ccc(Cl)cc2Cl)CCCCCC1CN1CCCC1 (stereo not shown) [1-(2,4-Dichloro-phenyl)-2-pyrrolidin-1-ylmethyl-cycloheptanol] | 55 | –
5 | OC1(CCCc2ccccc2)CCCCCC1CN1CCCC1 (stereo not shown) [1-(3-Phenyl-propyl)-2-pyrrolidin-1-ylmethyl-cycloheptanol] | 63 | –
6 | OC1(CCCc2ccccc2)CCCC1CN1CCCC1 (stereo not shown) [1-(3-Phenyl-propyl)-2-pyrrolidin-1-ylmethyl-cyclopentanol] | 65 | –
7 | OC1(c2ccc(Cl)cc2)CCCC1CN1CCCC1 (stereo not shown) [1-(4-Chloro-phenyl)-2-pyrrolidin-1-ylmethyl-cyclopentanol] | 75 | 68
8 | Cc1cc(C2(O)CCCCCC2CN2CCCC2)ccc1F (stereo not shown) [1-(4-Fluoro-3-methyl-phenyl)-2-pyrrolidin-1-ylmethyl-cycloheptanol] | 83 | –
9 | Cc1cc(C2(O)CCCC2CN2CCCC2)ccc1F (stereo not shown) [1-(4-Fluoro-3-methyl-phenyl)-2-pyrrolidin-1-ylmethyl-cyclopentanol] | 59 | –
10 | OC1(c2ccc(F)cc2)CCCCCC1CN1CCCC1 (stereo not shown) [1-(4-Fluoro-phenyl)-2-pyrrolidin-1-ylmethyl-cycloheptanol] | 57 | –
11 | COc1ccc(C2(O)CCCCCC2CN2CCCC2)cc1 (stereo not shown) [1-(4-Methoxy-phenyl)-2-pyrrolidin-1-ylmethyl-cycloheptanol] | 69 | –
12 | OC1(CCc2ccccc2)CCCCCC1CN1CCCC1 (stereo not shown) [1-Phenethyl-2-pyrrolidin-1-ylmethyl-cycloheptanol] | 82 | –
13 | OC1(CCc2ccccc2)CCCC1CN1CCCC1 (stereo not shown) [1-Phenethyl-2-pyrrolidin-1-ylmethyl-cyclopentanol] | 59 | –
14 | OC1(c2ccccc2)CCCCCC1CN1CCCC1 (stereo not shown) [1-Phenyl-2-pyrrolidin-1-ylmethyl-cycloheptanol] | 56 | –
15 | OC1(C#Cc2ccccc2)CCCC1CN1CCCC1 (stereo not shown) [1-Phenylethynyl-2-pyrrolidin-1-ylmethyl-cyclopentanol] | – | 92
16 | OC1(CCCc2ccccc2)CCCCC1CN1CCCCCC1 (stereo not shown) [2-Azepan-1-ylmethyl-1-(3-phenyl-propyl)-cyclohexanol] | 77 | –
17 | OC1(CCCc2ccccc2)CCCC1CN1CCCCCC1 (stereo not shown) [2-Azepan-1-ylmethyl-1-(3-phenyl-propyl)-cyclopentanol] | 59 | –
18 | OC1(c2ccc(Cl)cc2)CCCC1CN1CCCCCC1 (stereo not shown) [2-Azepan-1-ylmethyl-1-(4-chloro-phenyl)-cyclopentanol] | 80 | –
19 | Cc1cc(C2(O)CCCCCC2CN2CCCCCC2)ccc1F (stereo not shown) [2-Azepan-1-ylmethyl-1-(4-fluoro-3-methyl-phenyl)-cycloheptanol] | 63 | –
20 | Cc1cc(C2(O)CCCCC2CN2CCCCCC2)ccc1F (stereo not shown) [2-Azepan-1-ylmethyl-1-(4-fluoro-3-methyl-phenyl)-cyclohexanol] | 54 | –
21 | Cc1cc(C2(O)CCCC2CN2CCCCCC2)ccc1F (stereo not shown) [2-Azepan-1-ylmethyl-1-(4-fluoro-3-methyl-phenyl)-cyclopentanol] | 73 | –

Row | Structure (SMILES) | inhibition at 10 µM [%] | NA Uptake (% inhibition) [%]
22 | OC1(c2ccc(F)cc2)CCCCC1CN1CCCCCC1 (stereo not shown) [2-Azepan-1-ylmethyl-1-(4-fluoro-phenyl)-cyclohexanol] | 52 | –
23 | COc1ccc(C2(O)CCCCCC2CN2CCCCCC2)cc1 (stereo not shown) [2-Azepan-1-ylmethyl-1-(4-methoxy-phenyl)-cycloheptanol] | 58 | –
24 | COc1ccc(C2(O)CCCCC2CN2CCCCCC2)cc1 (stereo not shown) [2-Azepan-1-ylmethyl-1-(4-methoxy-phenyl)-cyclohexanol] | 58 | –
25 | COc1ccc(C2(O)CCCC2CN2CCCCCC2)cc1 (stereo not shown) [2-Azepan-1-ylmethyl-1-(4-methoxy-phenyl)-cyclopentanol] | 58 | –
26 | OC1(Cc2ccccc2)CCCCCC1CN1CCCCCC1 (stereo not shown) [2-Azepan-1-ylmethyl-1-benzyl-cycloheptanol] | 55 | –
27 | Cc1cccc(C2(O)CCCC2CN2CCCCCC2)c1 (stereo not shown) [2-Azepan-1-ylmethyl-1-m-tolyl-cyclopentanol] | 59 | –
28 | Cc1ccc(C2(O)CCCCCC2CN2CCCCCC2)cc1 (stereo not shown) [2-Azepan-1-ylmethyl-1-p-tolyl-cycloheptanol] | 58 | –
29 | Cc1ccc(C2(O)CCCCC2CN2CCCCCC2)cc1 (stereo not shown) [2-Azepan-1-ylmethyl-1-p-tolyl-cyclohexanol] | 64 | –
30 | Cc1ccc(C2(O)CCCC2CN2CCCCCC2)cc1 (stereo not shown) [2-Azepan-1-ylmethyl-1-p-tolyl-cyclopentanol] | 70 | –
31 | OC1(CCc2ccccc2)CCCCCC1CN1CCCCCC1 (stereo not shown) [2-Azepan-1-ylmethyl-1-phenethyl-cycloheptanol] | 87 | –
32 | OC1(CCc2ccccc2)CCCCC1CN1CCCCCC1 (stereo not shown) [2-Azepan-1-ylmethyl-1-phenethyl-cyclohexanol] | 70 | –
33 | OC1(CCc2ccccc2)CCCC1CN1CCCCCC1 (stereo not shown) [2-Azepan-1-ylmethyl-1-phenethyl-cyclopentanol] | 92 | –
34 | OC1(c2ccccc2)CCCCCC1CN1CCCCCC1 (stereo not shown) [2-Azepan-1-ylmethyl-1-phenyl-cycloheptanol] | 52 | –
35 | OC1(C#Cc2ccccc2)CCCC1CN1CCCCCC1 (stereo not shown) [2-Azepan-1-ylmethyl-1-phenylethynyl-cyclopentanol] | – | 99
36 | OC1(c2cccs2)CCCC1CN1CCCCCC1 (stereo not shown) [2-Azepan-1-ylmethyl-1-thiophen-2-yl-cyclopentanol] | 51 | –
37 | Cc1cccc(C2(O)CCCCCC2CN2CCCC2)c1 (stereo not shown) [2-Pyrrolidin-1-ylmethyl-1-m-tolyl-cycloheptanol] | 67 | –
38 | Cc1cccc(C2(O)CCCC2CN2CCCC2)c1 (stereo not shown) [2-Pyrrolidin-1-ylmethyl-1-m-tolyl-cyclopentanol] | 52 | –
39 | Cc1ccc(C2(O)CCCCCC2CN2CCCC2)cc1 (stereo not shown) [2-Pyrrolidin-1-ylmethyl-1-p-tolyl-cycloheptanol] | 76 | –
40 | Cc1ccc(C2(O)CCCCC2CN2CCCC2)cc1 (stereo not shown) [2-Pyrrolidin-1-ylmethyl-1-p-tolyl-cyclohexanol] | 59 | –
41 | Cc1ccc(C2(O)CCCC2CN2CCCC2)cc1 (stereo not shown) [2-Pyrrolidin-1-ylmethyl-1-p-tolyl-cyclopentanol] | 78 | –
42 | CCC(O)(C#Cc1ccccc1)C(C)CN1CCCC1 (stereo not shown) [3-Ethyl-4-methyl-1-phenyl-5-pyrrolidin-1-yl-pent-1-yn-3-ol] | 76 | –
